Assay results reported in patent EP0510719A1, “Benzimidazole derivatives substituted with a radical group and their use for inhibiting gastric acid secretion” (priority 1986, dated 1988).
Counter-ions that a name gives are not always drawn. Like-named read-outs stand apart in the source and are kept apart here. Values belong to the compound of their own block, whether it stands above or below them.

Legend:
[1] = Chemical stability in aqueous buffer solution at different pH, followed kinetically; type: physicochemical
Solubility in water = type: physicochemical
Procedure: By comparison, the sodium salt of omeprazole, 5-methoxy-2-[[(4-methoxy 3-5-dimethyl-pyridinyl)methyl] sulfinyl]-1-H-benzimidazole, has a solubility of 0.4 mg per ml at pH 9, a pH considered suitable for i.v. administration.

gastric acid secretion = assay: Inhibiting effect in vivo on gastric acid secretion in conscious dog (histamine-stimulated, chronic gastric fistula dog); conditions: inhibition during the 2nd hour after dose
Procedure: Chronic gastric fistula dog were used. These dogs have been surgically provided with a gastric cannula in the stomach and a duodenal fistula, used for direct intraduodenal administration of test compounds. Following a 4 weeks' recovery period after surgery, tests were performed once a week on each dog. Food and water were withdrawn 18 hours before each test.
Gastric acid secretion was induced by a continuous 4 h infusion of histamine at individual doses (400-600 nmol/kg^.h,iv) resulting in approximately 90% of maximal secretion of gastric acid. After 1 h of histamine stimulation, test compounds or vehicle were administered, either iv or im (vehicle = 0.5% saline) or id (vehicle = 0.5% Methocel®, 90 HG 15000, Dow Chem Corp.) via a catheter through the duodenal fistula. The gastric juice was collected by free flow from the gastric cannula in consecutive 30 min. samples during the duration of the histamine infusion. The samples were titrated to pH 7.0 with 0.1 M or 1.0 M NaOH using an automatic titrator and the acid output was calculated. The acid output during the periods after administration of test compound or vehicle was expressed as the fraction of the output during the period preceding these administrations, and the per cent inhibition of acid secretion was calculated by comparing in each dog the fractional responses induced by the test compound to the corresponding vehicle-induced fractional responses.
The test results given in Table 5 below represent inhibition during the 2nd hour after dose.

[2] = pH 5, 37°C, aqueous buffer solution, low concentration, read-out: t 1/2 (hours) pH 5 (converted)
[3] = pH 7.3, 37°C, aqueous buffer solution, low concentration, read-out: t 1/2 (hours) pH 7.3 (converted)

Structure (SMILES): COc1c(C)cnc(C[S+]([O-])c2nc3ccccc3n2COC(=O)CCC(=O)N2CCN(C)CC2)c1C (stereo not drawn) [Example 3]
half-life [1, 2]: 112 h | half-life [1, 3]: 32 h | solubility (Solubility in water; water): > 60 mg/mL | Inhibition of acid secretion (%) (gastric acid secretion; 0,3 μmol/kg iv): 72 (1) % | Inhibition of acid secretion (%) (gastric acid secretion; 1 μmol/kg iv): 98 (1) % | Inhibition of acid secretion (%) (gastric acid secretion; 2 μmol/kg id): 100 (1) %

Structure (SMILES): COc1ccc2[nH]c([S+]([O-])Cc3ncc(C)c(OC)c3C)nc2c1 (stereo not drawn) [Omeprazole-Na^⊕]
half-life ([1]; pH 2, 37°C, aqueous buffer solution, low concentration, read-out: t 1/2 (hours) pH 2 (converted)): 0.07 h | half-life [1, 2]: 0.04 h | half-life [1, 3]: 20 h

Structure (SMILES): CCOP(=O)(O)OCn1c([S+]([O-])Cc2ncc(C)c(OC)c2C)nc2ccc(OC)cc21 (stereo not drawn) [Example 33]
t 1/2 (hours) pH 5 ([1]; pH 5, 37°C, aqueous buffer solution, low concentration): No decomp. after 30 h | Inhibition of acid secretion (%) (gastric acid secretion; 1 μmol/kg id): 97 (1) % | Inhibition of acid secretion (%) (gastric acid secretion; 4 μmol/kg id): 98 (1) %

Structure (SMILES): COc1ccc2[nH]c([S+]([O-])Cc3ncc(C)c(OC)c3C)nc2c1 (stereo not drawn) [omeprazole, 5-methoxy-2-[[(4-methoxy 3-5-dimethyl-pyridinyl)methyl]sulfinyl]-1-H-benzimidazole, reference compound]
solubility (Solubility in water; at pH 9, a pH considered suitable for i.v. administration, sodium salt, read-out: solubility): 0.4 mg/mL

Further lines, with some results ahead:

half-life ([1]; pH 3, 37°C, aqueous buffer solution, low concentration, read-out: t 1/2 (hours) pH 3 (converted)): 80 h | half-life [1, 2]: 100 h | half-life [1, 3]: 40 h
Structure (SMILES): COc1ccc2c(c1)nc([S+]([O-])Cc1ncc(C)c(OC)c1C)n2COC(=O)CCC(=O)N1CCN(C)CC1 (stereo not drawn) [Example 34]

degraded at 600 h ([1]; aqueous buffer, after 25 days at 22° at the concentration 50 mg/ml, footnote to the pH 9.5 value, read-out: decomposition): 12% | half-life [1, 3]: 74 h | half-life ([1]; pH 9.5, 37°C, aqueous buffer solution, low concentration, read-out: t 1/2 (hours) pH 9.5): > 600 h | solubility (Solubility in water; water): > 60 mg/mL
Structure (SMILES): COc1ccc2nc([S+]([O-])Cc3ncc(C)c(OC)c3C)n(COP(=O)(O)O)c2c1 (stereo not drawn) [Example 29]
Inhibition of acid secretion (%) (gastric acid secretion; 0,3 μmol/kg iv): 45 (1) % | Inhibition of acid secretion (%) (gastric acid secretion; 0,5 μmol/kg iv): 60 (1) % | Inhibition of acid secretion (%) (gastric acid secretion; 1 μmol/kg im): 90 (1) % | Inhibition of acid secretion (%) (gastric acid secretion; 1 μmol/kg iv): 80-85 (2) %

half-life [1, 3]: 51 h
Structure (SMILES): COc1ccc2c(c1)nc([S+]([O-])Cc1ncc(C)c(OC)c1C)n2COP(=O)(O)O (stereo not drawn) [Example 32, phosphoric acid, [5-methoxy-[2[[(4-methoxy-3,5-dimethyl-2-pyridinyl)methyl]sulfinyl]-1-H-benzimidazole-1-yl]]methyl ester, disodium salt]
Inhibition of acid secretion (%) (gastric acid secretion; 0,3 μmol/kg iv): 55 (1) % | Inhibition of acid secretion (%) (gastric acid secretion; 0,6 μmol/kg iv): 53 (1) %
